Assay results from patent US20130078718A1, “CONVERSION OF VASCULAR ENDOTHELIAL CELLS INTO MULTIPOTENT STEM-LIKE CELLS” (PRESIDENT AND FELLOWS OF HARVARD COLLEGE, priority 2010, published 2013).
“Also recorded” adds a separate entry of the source.

Legend:
[1] = tested on: endothelial cells (HUVEC, HCMEC); test: RNA interference: effect of ALK siRNA on TGF-β2- or BMP4-induced EndMT and multipotency; type: cell-based, human
Description: Cells were grown in StemPro osteogenic, chondrogenic, or adipogenic culture medium (Invitrogen). Alkaline phosphatase staining was performed using the alkaline phosphatase kit and protocol (Sigma-Aldrich) on cultures grown in osteogenic medium for 7 days to detect osteoblasts. Alizarin Red (Sigma-Aldrich) staining was performed for 30 minutes on cultures grown in osteogenic medium for 21 days to detect matrix calcification. Alcian Blue (Sigma) staining was used to stain chondrocyte proteoglycans for 5 minutes in cultures grown in chondrogenic medium for 14 days. Oil Red O (Sigma-Aldrich) staining was performed for 15 minutes on cultures grown in adipogenic medium for 7 days.
(§1) siRNA gene expression knockdown studies were performed using the TriFECTa RNAi kit (Integrated DNA Technologies) and corresponding protocol. Each 27 mer siRNA duplex was transfected into cells using X-tremeGene siRNA transfection reagent (Roche) following the manufacturer's guidelines. siRNA was synthesized (Integrated DNA Technologies) with the following sequences: ALK2: 5′-[…]-3′ (SEQ ID NO: 51); negative control: 5′-[…]-3′ (SEQ ID NO: 52).
Cells were grown in StemPro osteogenic, chondrogenic, or adipogenic culture medium (Invitrogen). Alkaline phosphatase staining was performed using the alkaline phosphatase kit and protocol (Sigma-Aldrich) on cultures grown in osteogenic medium for 7 d to detect osteoblasts. Alizarin Red (Sigma-Aldrich) staining was performed for 30 min on cultures grown in osteogenic medium for 21 d to detect matrix calcification. Alcian Blue (Sigma) staining was used to stain chondrocyte proteoglycans for 5 minutes in cultures grown in chondrogenic medium for 14 d. Oil Red O (Sigma-Aldrich) staining was performed for 15 min on cultures grown in adipogenic medium for 7 d. For in vivo analysis, endothelial cells were labeled with fluorescent quantum dots using the Qtracker 525 Cell Labeling Kit (Invitrogen). Cells were treated in culture to induce EndMT then absorbed into OPLA polylactic acid scaffolds (BD Biosciences). Scaffolds were surgically implanted subcutaneously into immunodeficient nude mice (Nu/Nu strain; Charles River Laboratories). Local injection of StemPro differentiation medium (described above) was performed in the area of the implants every 72 h for 6 weeks. Scaffolds were cryosectioned and stained with Alizarin Red, Alcian Blue, or Oil Red O as described above. All procedures were reviewed and approved by the Institutional Animal Care and Use Committee at Harvard Medical School.
(§2) siRNA gene expression knockdown studies were performed using the TriFECTa RNAi kit (Integrated DNA Technologies) and corresponding protocol. Each 27 mer siRNA duplex was transfected into cells using X-tremeGene siRNA transfection reagent (Roche) following the manufacturer's guidelines. siRNA was synthesized (Integrated DNA Technologies) with the following sequences: […]

ALK2 = test: siRNA knockdown of ALK2 expression (immunoblotting); type: cell-based, human; conditions: transfected for 24 hours
Description: as §1, §2

HUVECs = test: Assessment of EndMT inhibitors (immunoblotting); type: cell-based, human; conditions: dorsomorphin 5 μM, BMP7 10 ng ml−1, VEGF 25 ng ml−1; for TGF-β2-induced changes in CD31, FSP-1 and CD44 expression (immunoblots): HUVECs
Description: Human umbilical vein endothelial cells (HUVEC) and human cutaneous microvascular endothelial cells (HCMEC) isolated as previously described (35). Cells were tested for purity and found to express no markers for lymphatic endothelial cells or stromal cells (pericytes, smooth muscle cells, etc.) (36). This was reconfirmed by flow cytometry analysis (data not shown). Clonal populations were isolated with PYREX 8×8 mm cloning cylinders (Corning) and shown to respond in a manner identical to that of the cultures used for our experiments (FIG. 25B-D). Cells were grown in culture using EGM-2 medium (Cambrex), containing 10% FBS and 1% Penicillin/Streptomycin, followed by human endothelial serum free medium (Gibco) 24 h prior to all experimental conditions. Bone marrow derived mesenchymal stem cells (ScienCell Research Laboratories) were grown in mesenchymal stem cell medium (ScienCell Research Laboratories). Bone marrow derived hematopoietic stem cells (Lonza) were grown in HPGM medium (Lonza). Human corneal fibroblasts, from a stock provided by Dr. Elizabeth Hay (Harvard Medical School), were grown in RPMI medium, containing 10% FBS and 1% Penicillin/Streptomycin. Primary human osteoblasts, chondrocytes, and adipocytes and their respective growth media were obtained from Cell Applications, Inc. […] Recombinant VEGF (R&D Systems) was added to cultures at a concentration of 25 ng ml^-1. Dorsomorphin (Sigma-Aldrich) was added to cultures at a concentration of 5 μM. All experiments for this study were performed at minimum in triplicate. Immunoassays were performed using the following antibodies at concentrations (and using protocols) recommended by the respective manufacturers: […] Stressgen), phospho-Smad2 (3101), Smad2 (3122), phospho-Smad5 (9516), Smad5 (9517; […] Santa Cruz Biotechnology), osterix (ab22552), adiponectin (ab22554), N-cadherin (ab76057), NG2 (ab83508), vWF (ab68545; Abcam); CD31 (IR610; Dako), […]; GenScript); α-SMA ([…]), β-actin (A1978; Sigma-Aldrich). Samples were run with Criterion precast SDS-PAGE Gels (Bio-Rad). […] TrueBlot IgG beads (eBioscience) were used for immunoprecipitation experiments. AlexaFluor secondary antibodies (Invitrogen) were used at a dilution of 1:200. Images were acquired using a Nikon 80i fluorescence microscope.

EndMT = conditions: references 30, 31; cited from earlier work
Smad2 and Smad5 = test: Smad phosphorylation by immunoblotting; type: cell-based, human; conditions: HUVECs, 10 ng ml−1, 1 h
Description: Human umbilical vein endothelial cells (HUVEC) and human cutaneous microvascular endothelial cells (HCMEC) were provided by J. Bischoff (Children's Hospital Boston) and isolated as previously described^35. […] Cells were grown in culture using EGM-2 medium (Cambrex), containing 10% FBS and 1% Penicillin/Streptomycin, followed by human endothelial serum free medium (Gibco) 24 hours prior to all experimental conditions. Bone marrow derived mesenchymal stem cells (ScienCell Research Laboratories) were grown in mesenchymal stem cell medium (ScienCell Research Laboratories). Human corneal fibroblasts, from a stock initially provided by E. Hay (Harvard Medical School), were grown in RPMI medium, containing 10% FBS and 1% Penicillin/Streptomycin. Primary human osteoblasts, chondrocytes, and adipocytes and their respective growth media were obtained from Cell Applications Inc. Recombinant TGF-β2 and BMP4 proteins (R&D Systems) were added to the serum free culture medium for all relevant experiments at a concentration of 10 ng/mL. Cells were treated for 15 minutes to assess ALK2 phosphorylation, 1 hour to measure Smad5 phosphorylation, or 48 hours to induce EndMT. All experiments for this study were performed at minimum in triplicate.
Immunoassays were performed using the following antibodies at concentrations (and using protocols) recommended by the respective manufacturers: FSP-1 (H00006275-M01; Stressgen), ALK2 (sc-5671), Phospho-tyrosine (sc-7020), VE-cadherin (sc-6458), TIE2 (sc-324, sc-9026), STRO-1 (sc-47733), CD44 (sc-71220), CD90 (sc-9163), Osteocalcin (sc-74495, sc-23790), SOX9 (sc-20095), COL2A1 (sc-59958, sc-52658), PPARγ2 (sc-22022; Santa Cruz Biotechnology), vWF (ab68545; Abcam); His (A00174; GenScript); α-SMA (A5228), β-actin (A1978; Sigma-Aldrich). Samples were run with Criterion precast SDS-PAGE Gels (Bio-Rad). HRP-conjugated IgG TrueBlot reagents (18-8814, 18-8816, 18-8817; eBioscience) were used at a dilution of 1:1000. TrueBlot IgG beads (eBioscience) were used for immunoprecipitation experiments. Alexa Fluor secondary antibodies (Invitrogen) were used at a dilution of 1:200. Images were acquired using a Nikon 80i fluorescence microscope.
Human umbilical vein endothelial cells (HUVEC) and human cutaneous microvascular endothelial cells (HCMEC) isolated as previously described (35). […] Cells were grown in culture using EGM-2 medium (Cambrex), containing 10% FBS and 1% Penicillin/Streptomycin, followed by human endothelial serum free medium (Gibco) 24 h prior to all experimental conditions. Bone marrow derived mesenchymal stem cells (ScienCell Research Laboratories) were grown in mesenchymal stem cell medium (ScienCell Research Laboratories). Bone marrow derived hematopoietic stem cells (Lonza) were grown in HPGM medium (Lonza). Human corneal fibroblasts, from a stock provided by Dr. Elizabeth Hay (Harvard Medical School), were grown in RPMI medium, containing 10% FBS and 1% Penicillin/Streptomycin. Primary human osteoblasts, chondrocytes, and adipocytes and their respective growth media were obtained from Cell Applications, Inc. Recombinant TGF-β2, BMP4, and BMP7 proteins (R&D Systems) were added to the serum free culture medium for all relevant experiments at a concentration of 10 ng ml^−1. Recombinant VEGF (R&D Systems) was added to cultures at a concentration of 25 ng ml^−1. Dorsomorphin (Sigma-Aldrich) was added to cultures at a concentration of 5 μM.

ALK2 with ALK5 = molecular target: T1, ALK2 with ALK5 (Homo sapiens, UniProt Q04771); test: Interaction of ALK2 with ALK5: immunoprecipitation of ALK2, immunoblotting for ALK5; type: cell-based; conditions: 10 ng ml−1, 15 min
T1 construct: endogenous in cells; host or cells: HUVEC
T1 sequence (Q04771 21-509): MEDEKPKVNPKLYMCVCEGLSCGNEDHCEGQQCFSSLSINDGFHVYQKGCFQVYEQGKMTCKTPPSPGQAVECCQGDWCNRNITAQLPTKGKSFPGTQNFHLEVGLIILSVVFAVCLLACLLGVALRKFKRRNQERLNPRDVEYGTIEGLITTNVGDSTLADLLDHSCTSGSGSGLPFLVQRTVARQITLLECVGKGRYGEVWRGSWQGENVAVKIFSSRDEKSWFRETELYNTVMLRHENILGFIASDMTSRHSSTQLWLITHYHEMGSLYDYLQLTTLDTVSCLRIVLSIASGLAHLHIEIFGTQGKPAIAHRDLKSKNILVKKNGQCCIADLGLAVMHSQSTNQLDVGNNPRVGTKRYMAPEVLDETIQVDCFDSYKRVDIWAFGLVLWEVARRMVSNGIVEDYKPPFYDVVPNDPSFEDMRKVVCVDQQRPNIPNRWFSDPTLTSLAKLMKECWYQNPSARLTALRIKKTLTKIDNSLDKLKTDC
Description: Human umbilical vein endothelial cells (HUVEC) and human cutaneous microvascular endothelial cells (HCMEC) isolated as previously described (35). Cells were tested for purity and found to express no markers for lymphatic endothelial cells or stromal cells (pericytes, smooth muscle cells, etc.) (36). This was reconfirmed by flow cytometry analysis (data not shown). Clonal populations were isolated with PYREX 8×8 mm cloning cylinders (Corning) and shown to respond in a manner identical to that of the cultures used for our experiments (FIG. 25B-D). Cells were grown in culture using EGM-2 medium (Cambrex), containing 10% FBS and 1% Penicillin/Streptomycin, followed by human endothelial serum free medium (Gibco) 24 h prior to all experimental conditions. Bone marrow derived mesenchymal stem cells (ScienCell Research Laboratories) were grown in mesenchymal stem cell medium (ScienCell Research Laboratories). Bone marrow derived hematopoietic stem cells (Lonza) were grown in HPGM medium (Lonza). Human corneal fibroblasts, from a stock provided by Dr. Elizabeth Hay (Harvard Medical School), were grown in RPMI medium, containing 10% FBS and 1% Penicillin/Streptomycin. Primary human osteoblasts, chondrocytes, and adipocytes and their respective growth media were obtained from Cell Applications, Inc. […] Recombinant VEGF (R&D Systems) was added to cultures at a concentration of 25 ng ml^-1. Dorsomorphin (Sigma-Aldrich) was added to cultures at a concentration of 5 μM. All experiments for this study were performed at minimum in triplicate. Immunoassays were performed using the following antibodies at concentrations (and using protocols) recommended by the respective manufacturers: […] Stressgen), phospho-Smad2 (3101), Smad2 (3122), phospho-Smad5 (9516), Smad5 (9517; […] Santa Cruz Biotechnology), osterix (ab22552), adiponectin (ab22554), N-cadherin (ab76057), NG2 (ab83508), vWF (ab68545; Abcam); CD31 (IR610; Dako), […]; GenScript); α-SMA ([…]), β-actin (A1978; Sigma-Aldrich). […] Images were acquired using a Nikon 80i fluorescence microscope.

[2] = siRNA 24 hours, then TGF-β2 or BMP4 48 hours
[3] = siRNA transfected, osteogenic medium 7 days

ALK2 siRNA: 27 mer siRNA duplex 5'-GCAACACUGUCCAUUCUUCUUAACCAG-3′ (SEQ ID NO: 51/56) (chemistry not fully specified)
TGF-β2- or BMP4-induced decrease in VE-cadherin and increase in CD44 expression (ELISA) ([1]; HUVECs, ALK-specific siRNA): inhibited | TGF-β2- or BMP4-induced increases in FSP-1 and STRO-1 expression (immunoblotting) ([1]; siRNA 24 h, then TGF-β2 or BMP4 48 h): blocked these increases | TGF-β2- or BMP4-induced STRO-1 expression (immunoblotting) [1, 2]: prevented TGF-β2- or BMP4-induced increases | TGF-β2- or BMP4-induced increase in FSP-1 expression (immunoblotting) [1, 2]: completely blocked these increases | cells expressing FSP-1 after TGF-β2 or BMP4 (flow cytometry) [1, 2]: very few cells expressing FSP-1 | TGF-β2- or BMP4-induced increases in osteocalcin and osterix expression (real-time quantitative PCR) [1, 3]: prevented these increases | alkaline phosphatase staining of TGF-β2 or BMP4 treated cultures [1, 3]: no positive staining and none | ALK2 expression (immunoblotting) (ALK2): complete inhibition

VEGF
TGF-β2-induced changes in CD31, FSP-1 and CD44 expression (immunoblots) (HUVECs): inhibition of TGF-β2-induced decreases in CD31 and increases in FSP-1 and CD44 expression | effect on EndMT (inhibitor) (HUVECs): inhibitors of EndMT | effect on EndMT (EndMT): inhibit EndMT

B1: BMP7: Recombinant BMP7 protein (R&D Systems), ALK2 activating ligand that inhibits EndMT (protein)
chain: STGSKQRSQNRSKTPKNQEALRMANVAENSSSDQRQACKKHELYVSFRDLGWQDWIIAPEGYAAYYCEGECAFPLNSYMNATNHAIVQTLVHFINPETVPKPCCAPTQLNAISVLYFDDSSNVILKKYRNMVVRACGCH
phosphorylation of Smad2 and Smad5 (immunoblotting) (Smad2 and Smad5): stimulated phosphorylation of only Smad5 | ALK5 in ALK2 immunoprecipitates (ALK2 with ALK5): No interaction of ALK2 and ALK5 | TGF-β2-induced changes in CD31, FSP-1 and CD44 expression (immunoblots) (HUVECs): inhibition of TGF-β2-induced decreases in CD31 and increases in FSP-1 and CD44 expression | effect on EndMT (inhibitor) (HUVECs): inhibits EndMT; also recorded: inhibitors of EndMT
